The nature of series [1]: Crystal form stability of drug substance in different temperature and humidity conditions. It is filed as physicochemical. As to the method: The drug substance of Form II was subjected to different relative humidity levels at 40° C. (±2° C.), samples were pulled out and evaluated for crystal form after a specified time period, and the results are summarized in Table 10.
The drug substance of Form II was subjected to different temperatures at RH 32% (±5%), samples were pulled out and evaluated for crystal form after a specified time period, the results are summarized in Table 11.
The drug substance of Form II was packed with PE to evaluate the stability.
The drug substance of Form II was stored in sealed glass vial under ambient conditions for 9 months.

Assay in series [2]: not given
The source holds these as a separate data set.

Where [3] appears, read: drug substance powder, individual determination, trihydrate.

“And” between values parts separate entries of the source, which are not always exact repeats. Equal values may be shown once. “Also recorded” adds a separate entry of the source. Read-outs that look alike come from different tables or passages of the source.

For `CCCCC(=O)N(Cc1ccc(-c2ccccc2-c2nnn[n-]2)cc1)[C@H](C(=O)[O-])C(C)C.CCOC(=O)[C@H](C)C[C@@H](Cc1ccc(-c2ccccc2)cc1)NC(=O)CCC(=O)[O-].O.[Na+].[Na+].[Na+]` [Form I, trisodium [3-((1S,3R)-1-biphenyl-4-ylmethyl-3-ethoxycarbonyl-1-butylcarbamoyl) propionate-(S)-3′-methyl-2′-(pentanoyl{2″-(tetrazol-5-ylate)biphenyl-4′-ylmethyl}amino) butyrate] hydrate], where the note is “humidity levels 20% RH to 60% RH at 25° C., hydrate”, the “moisture uptake compared to patent form (DVS)” value is on record as “less hygroscopic; also recorded: less moisture uptake”.

Take `CCCCC(=O)N(Cc1ccc(-c2ccccc2-c2nnn[n-]2)cc1)[C@H](C(=O)[O-])C(C)C.CCOC(=O)[C@H](C)C[C@@H](Cc1ccc(-c2ccccc2)cc1)NC(=O)CCC(=O)[O-].O.O.O.[Na+].[Na+].[Na+]` [Form II, trisodium [3-((1S,3R)-1-biphenyl-4-ylmethyl-3-ethoxycarbonyl-1-butylcarbamoyl) propionate-(S)-3′-methyl-2′-(pentanoyl{2″-(tetrazol-5-ylate)biphenyl-4′-ylmethyl}amino) butyrate] trihydrate]: the “Crystal form stability, accelerated” value in series [1] (packed with PE, 40° C., RH 75%, one month) is “remained stable”. Further, in series [1] (sealed glass vial, ambient conditions, 9 months), the Crystal form stability result was “remained stable”. Also, where the note is “humidity levels 50% RH to 60% RH at 25° C., trihydrate”, the “moisture uptake compared to patent form (DVS)” value was “less hygroscopic; also recorded: less moisture uptake”. In addition, in series [2] ((Tapped Density-Bulk Density)/Tapped Density*100%, individual determination, trihydrate), the “Compressibility Index” value was 22% and 23% (2×). In series [2] (average of the determinations), the “Compressibility Index Average” value stood at 22%. For the same compound, in series [2] (by compressibility index), the “flowability compared with patent form” value is reported as “better”. In series [2] (setting [3]), the “Bulk Density” value was 0.197 g/mL and 0.229 g/mL and 0.258 g/mL; the “Tapped Density” value is 0.251 g/mL and 0.297 g/mL and 0.337 g/mL. Further, in series [2] (rating by compressibility index, USP<1174>, trihydrate), the Flowability entry was “Passable”.

The values are drawn from patent US10508087B2, “Crystalline forms of trisodium supramolecular complex comprising valsartan and AHU-377 and methods thereof” (CRYSTAL PHARMATECH CO., LTD., priority 2014, dated 2019).
